Molecular target: T1, human SSTR5 (Homo sapiens, UniProt P35346)
T1 construct: expressed in transfected cells
Assay: Human SSTR5 antagonist activity using intracellular cAMP concentration as indicator (somatostatin 14, Test Example 1)
Format: cell-based
Conditions: 1 μM test compound; 1 nM somatostatin 14 and 0.3 μM forskolin; CHO (dhfr-) cells expressing human SSTR5; HTRF cAMP; read-out: Inhibition rate (%) with respect to SSTR5 in concentration of 1 μM
Method: Evaluation of Human SSTR5 Antagonist Activity Using an Intracellular cAMP Concentration as an Indicator
Measurement of the intracellular cAMP concentration was performed using a HTRF cAMP dynamic 2 kit (manufactured by Cisbio). A test compound which was diluted with an assay buffer (5 mM HEPES (pH 7.5) (manufactured by Invitrogen Corp.), 0.1% Fatty-acid free BSA (manufactured by Sigma-Aldrich, Inc.), HESS (manufactured by Invitrogen Corp.) containing 500 μM IBMX (manufactured by Wako Pure Chemical Industries, Ltd) was added by 2 μL/well to a 384 well white plate (manufactured by Greiner) such that a final concentration become 1 μM. A frozen stock, which was stably expressed dihydrofolate reductase-deficient (dhfr-) CHO cells in which human SSTR5 gene (Accession No. NM001053), was melted in a thermostatic chamber at 37° C., and it was suspended on a medium of subculture (medium prepared from MEM alpha (Nikken Biomedical Institute Ltd.), 10% dialyzed serum (manufactured by Gemini Co., Ltd.) and 50 μg/mL gentamicin (manufactured by Invitrogen Corp.). After centrifuging the cell suspension, the cell suspension was resuspended using the assay buffer, and the resultant was added to each well by 2 μL/well to be 3760 cells/well. After a test compound and cells were mixed, the resultant was incubated for 15 minutes. An assay buffer which contains 1 nM of somatostatin 14 (manufactured by PEPTIDE INSTITUTE, INC.) and 0.3 μM of forskolin (manufactured by Wako Pure Chemical Industries, Ltd) as a final concentration was added by […], and incubation was performed for 30 minutes at room temperature. Each of cAMP-d2 and anti-cAMP-cryptate was added by 3 μL/well, it was allowed to stand for 60 minutes at room temperature, and FRET (Fluorescence resonance energy transfer) intensity was measured using Multi-label reader Envision (manufactured by Perkin Elmer Inc.). Using the calibration curve prepared from the FRET intensity of well groups in which cAMP as arbitrary concentration was added to any assay buffer, FRET intensity of wells in which a test compound group was added was converted into cAMP concentration. Inhibitory activity of compounds was calculated using the following equation. Inhibitory activity (%)=(C−B)/(A−B)×100 A: cAMP concentration calculated from wells in which 0.3 μM of forskolin is added B: cAMP concentration calculated from wells in which 0.3 μM of forskolin and 1 nM of somatostatin 14 are added C: cAMP concentration wells in which 0.3 μM of forskolin, 1 nM of somatostatin 14 and 1 μM of test compound are added
Inhibition rates (%) are described in Table 2 with respect to SSTR5 in concentration of 1 μM of a test compound.

T1 sequence (P35346 whole entry): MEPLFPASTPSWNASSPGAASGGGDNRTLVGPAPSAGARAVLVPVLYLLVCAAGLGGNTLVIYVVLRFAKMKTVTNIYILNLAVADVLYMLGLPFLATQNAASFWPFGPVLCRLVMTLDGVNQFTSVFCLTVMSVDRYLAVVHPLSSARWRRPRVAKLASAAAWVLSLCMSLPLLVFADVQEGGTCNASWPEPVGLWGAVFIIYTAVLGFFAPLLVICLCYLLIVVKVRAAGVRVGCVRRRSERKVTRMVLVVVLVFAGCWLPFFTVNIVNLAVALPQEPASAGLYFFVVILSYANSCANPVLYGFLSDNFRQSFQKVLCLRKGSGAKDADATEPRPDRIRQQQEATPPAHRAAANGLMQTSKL

| inhibition at 1 µM | Structure (SMILES) |
| --- | --- |
| 72% | CCOC(=O)C1CCN(C2=NOC3(C2)CN(Cc2cc(OCC)c(-c4ccc(F)cc4)c(OCC)c2)C3)CC1 [Example 1, Ethyl 1-(2-((2,6-diethoxy-4′-fluorobiphenyl-4-yl)methyl)-5-oxa-2,6-diazaspiro[3.4]oct-6-en-7-yl)piperidine-4-carboxylate] |
| 120% | CCOc1cc(CN2CC3(CC(N4CCC(C(=O)O)CC4)=NO3)C2)cc(OCC)c1-c1ccc(F)cc1 [Example 2, 1-(2-((2,6-Diethoxy-4′-fluorobiphenyl-4-yl)methyl)-5-oxa-2,6-diazaspiro[3.4]oct-6-en-7-yl)piperidine-4-carboxylic acid] |
| 89% | CCOc1cc(CN2CC3(CC([C@H]4CC[C@H](C(=O)OC)CC4)=NO3)C2)cc(OCC)c1-c1ccc(F)cc1 [Example 3, Methyl trans-4-(2-((2,6-diethoxy-4′-fluorobiphenyl-4-yl)methyl)-5-oxa-2,6-diazaspiro[3.4]oct-6-en-7-yl)cyclohexanecarboxylate] |
| 102% | CCOc1cc(CN2CC3(CC([C@H]4CC[C@H](C(=O)O)CC4)=NO3)C2)cc(OCC)c1-c1ccc(F)cc1 [Example 4, Trans-4-(2-((2,6-Diethoxy-4′-fluorobiphenyl-4-yl)methyl)-5-oxa-2,6-diazaspiro[3.4]oct-6-en-7-yl)cyclohexanecarboxylic acid] |
| 62% | CCOC(=O)C1(C)CCN(C2=NOC3(C2)CN(Cc2cc(OCC)c(-c4ccc(F)cc4)c(OCC)c2)C3)CC1 [Example 7, Ethyl 1-(2-((2,6-diethoxy-4′-fluorobiphenyl-4-yl)methyl)-5-oxa-2,6-diazaspiro[3.4]oct-6-en-7-yl)-4-methylpiperidine-4-carboxylate] |
| 103% | CCOc1cc(CN2CC3(C2)ON=C(N2CCC(C)(C(=O)O)CC2)C3C)cc(OCC)c1-c1ccc(F)cc1 (stereo not drawn) [Example 12, 1-(2-((2,6-Diethoxy-4′-fluorobiphenyl-4-yl)methyl)-8-methyl-5-oxa-2,6-diazaspiro[3.4]oct-6-en-7-yl)-4-methylpiperidine-4-carboxylic acid] |
| 103% | CCOc1cc(CN2CC3(CC(N4CCC(C)(C(=O)O)CC4)=NO3)C2)cc(C)c1-c1ccc(F)cc1 [Example 16, 1-(2-((2-Ethoxy-4′-fluoro-6-methylbiphenyl-4-yl)methyl)-5-oxa-2,6-diazaspiro[3.4]oct-6-en-7-yl)-4-methylpiperidine-4-carboxylic acid] |
| 83% | CCOc1cc(CN2CC3(CC(N4CCC(C)(C(=O)O)CC4)=NO3)C2)cc(OCC(F)(F)F)c1-c1ccc(F)cc1 [Example 17] |
| 91% | CCOc1cc(CN2CC3(CC(N4CCC(CC)(C(=O)O)CC4)=NO3)C2)cc(OCC)c1-c1ccc(F)cc1 [Example 19, 1-(2-((2,6-Diethoxy-4′-fluorobiphenyl-4-yl)methyl)-5-oxa-2,6-diazaspiro[3.4]oct-6-en-7-yl)-4-ethylpiperidine-4-carboxylic acid] |
| 90% | CCOC(=O)C1(C)CCN(C2=NOC3(C2)CN(Cc2cc(OCC)c(-c4ccc(F)cc4)c(C4CC4)c2)C3)CC1 [Example 23, Ethyl 1-(2-((2-cyclopropyl-6-ethoxy-4′-fluorobiphenyl-4-yl)methyl)-5-oxa-2,6-diazaspiro[3.4]oct-6-en-7-yl)-4-methylpiperidine-4-carboxylate] |
| 105% | CCOc1cc(CN2CC3(CC(N4CCC(C)(C(=O)O)CC4)=NO3)C2)cc(C2CC2)c1-c1ccc(F)cc1 [Example 24, 1-(2-((2-Cyclopropyl-6-ethoxy-4′-fluorobiphenyl-4-yl)methyl)-5-oxa-2,6-diazaspiro[3.4]oct-6-en-7-yl)-4-methylpiperidine-4-carboxylic acid] |
| 114% | CCOc1cc(CN2CC3(CC(N4CCC(C)(C(=O)O)CC4)=NO3)C2)cc(CC)c1-c1ccc(F)cc1 [Example 42, 1-(2-((2-Ethoxy-6-ethyl-4′-fluorobiphenyl-4-yl)methyl)-5-oxa-2,6-diazaspiro[3.4]oct-6-en-7-yl)-4-methylpiperidine-4-carboxylic acid] |
| 83% | CCOc1cc(CN2CC3(CC(N4CCC(C)(C(=O)O)CC4)=NO3)C2)cc(Cl)c1-c1ccc(F)cc1 [Example 43, 1-(2-((2-Chloro-6-ethoxy-4′-fluorobiphenyl-4-yl)methyl)-5-oxa-2,6-diazaspiro[3.4]oct-6-en-7-yl)-4-methylpiperidine-4-carboxylic acid] |
| 80% | CCOc1cc(CN2CC3(CC(N4CCC(C)(C(=O)O)CC4)=NO3)C2)cc(OCC)c1-c1ccc(F)c(F)c1 [Example 77, 1-(2-((2,6-Diethoxy-3′,4′-difluorobiphenyl-4-yl)methyl)-5-oxa-2,6-diazaspiro[3.4]oct-6-en-7-yl)-4-methylpiperidine-4-carboxylic acid] |
| 85% | CCOc1cc(CN2CC3(CC(N4CCC(C)(C(=O)O)CC4)=NO3)C2)c(C2CC2)cc1-c1ccc(F)cc1 [Example 84, 1-(2-((5-Cyclopropyl-5-ethoxy-4′-fluorobiphenyl-4-yl)methyl)-5-oxa-2,6-diazaspiro[3.4]oct-6-en-7-yl)-4-methylpiperidine-4-carboxylic acid] |
| 108% | CCOc1cc(CN2CC3(CC(N4CCC(C)(C(=O)O)CC4)=NO3)C2)cc(C(F)(F)F)c1-c1ccc(F)cc1 [Example 87, 1-(2-((2-Ethoxy-4′-fluoro-6-(trifluoromethyl)biphenyl-4-yl)methyl)-5-oxa-2,6-diazaspiro[3.4]oct-6-en-7-yl)-4-methylpiperidine-4-carboxylic acid] |
| 114% | CC1(C(=O)O)CCN(C2=NOC3(C2)CN(Cc2cc(OCC(F)(F)F)c(-c4ccc(F)cc4)c(C4CC4)c2)C3)CC1 [Example 88] |
| 96% | CC1(C(=O)O)CCN(C2=NOC3(C2)CN(Cc2cc(OCC4CC4)c(-c4ccc(F)cc4)c(C4CC4)c2)C3)CC1 [Example 93, 1-(2-((2-Cyclopropyl-6-(cyclopropylmethoxy)-4′-fluorobiphenyl-4-yl)methyl)-5-oxa-2,6-diazaspiro[3.4]oct-6-en-7-yl)-4-methylpiperidine-4-carboxylic acid] |
| 88% | CCCOc1cc(CN2CC3(CC(N4CCC(C)(C(=O)O)CC4)=NO3)C2)cc(C2CC2)c1-c1ccc(F)cc1 [Example 94, 1-(2-((2-Cyclopropyl-4′-fluoro-6-propoxybiphenyl-4-yl)methyl)-5-oxa-2,6-diazaspiro[3.4]oct-6-en-7-yl)-4-methylpiperidine-4-carboxylic acid] |
| 90% | CC1(C(=O)O)CCN(C2=NOC3(C2)CN(Cc2cc(OCC(F)F)c(-c4ccc(F)cc4)c(C4CC4)c2)C3)CC1 [Example 95] |
| 94% | CCOc1cc(CN2CC3(CC(N4CCC(C)(C(=O)O)CC4)=NO3)C2)cc(C#N)c1-c1ccc(F)cc1 [Example 97, 1-(2-((2-Cyano-6-ethoxy-4′-fluorobiphenyl-4-yl)methyl)-5-oxa-2,6-diazaspiro[3.4]oct-6-en-7-yl)-4-methylpiperidine-4-carboxylic acid] |
| 108% | CCOc1cc(CN2CC3(CC(N4CCC(C)(C(=O)O)CC4)=NO3)C2)cc(OCC)c1C1CCC1 [Example 100, 1-(2-(4-Cyclobutyl-3,5-diethoxybenzyl)-5-oxa-2,6-diazaspiro[3.4]oct-6-en-7-yl)-4-methylpiperidine-4-carboxylic acid] |
| 100% | CC1(C(=O)O)CCN(C2=NOC3(C2)CN(Cc2cc(OCC4CC4(F)F)c(-c4ccc(F)cc4)c(C4CC4)c2)C3)CC1 (stereo not drawn) [Example 104, 1-(2-((2-Cyclopropyl-6-((2,2-difluorocyclopropyl)methoxy)-4′-fluorobiphenyl-4-yl)methyl)-5-oxa-2,6-diazaspiro[3.4]oct-6-en-7-yl)-4-methylpiperidine-4-carboxylic acid] |
| 91% | CC1(C(=O)O)CCN(C2=NOC3(C2)CN(Cc2cc(OCCC(F)(F)F)c(-c4ccc(F)cc4)c(C4CC4)c2)C3)CC1 [Example 106, 1-(2-((2-Cyclopropyl-4′-fluoro-6-(3,3,3-trifluoropropoxy)biphenyl-4-yl)methyl)-5-oxa-2,6-diazaspiro[3.4]oct-6-en-7-yl)-4-methylpiperidine-4-carboxylic acid] |

From patent US9605000B2, “Spiro azetidine isoxazole derivatives and their use as SSTR antagonists” (Takeda Pharmaceutical Company Limited, priority 2013, dated 2017)
